Experimental findings from paper PMC10819458, “Using Pharmacokinetic–Pharmacodynamic Modeling to Study the Main Active Substances of the Anticancer Effect in Mice from Panax ginseng–Ophiopogon japonicus” (Molecules, 2024) are described below.

Where two headings read alike, the source gives them in different places.

The nature of this data set: Lung-tissue pharmacokinetics of PG–OJ components in tumor-bearing mice (UPLC–MS/MS). The format is in vivo, BALB/c nude male mice. The note with it: for Cmax: read-out: Cmax; for MRT last: read-out: MRT(0–t) (converted). An excerpt: This study employed Ultra-Performance Liquid Chromatography–Mass Spectrometry (UPLC–MS/MS) to examine the pharmacokinetic properties of 20 bioactive components in a cell-derived xenograft (CDX) model following oral administration of a 10.2 g/kg PG–OJ extract.
Healthy BALB/c nude male mice (weight: 18–21 g) were purchased from Beijing Huafukang Biotechnology Co., Ltd. (Beijing, China, License Number: SCXK (Jing) 2021-0006). After 3 days of acclimatization, the mice were randomly divided into the control group (CG), model group (MG), and the combined-administration group of P. ginseng and O. japonicus (HM1-HM13) ([…], four-fold clinical-equivalent doses). Subsequently, except for the CG, 0.2 mL (approximately 2 × 10^7 cells) of A549 cell suspension was aspirated with a 1 mL syringe and injected into the right axillary fossa of the model group and drug-administration-group mice. The control-group mice were injected with an equal volume of PBS at the same location. The tumor diameter was measured daily using a caliper. The model was successful when the tumor diameter > 3 mm. The combined-administration group of P. ginseng and O. japonicus was given the corresponding drug orally, once a day, with 0.2 mL/mouse each time. The control group and the model group mice were given the same volume of distilled water, continuously orally for 21 days. During this period, the body weight and tumor volume of the mice were recorded. At the end of the last administration, the mice were […] 0.083, 0.167, 0.25, 0.5, 0.75, 1, 2, 3, 4, 6, 8, 12, 24 h later. After injecting 0.1% pentobarbital sodium, blood was collected from the eye-socket vein, the mice were decapitated, and the tumor and lung tissues were carefully removed.
After homogenizing 50 mg of right-lung-tissue sample, 2 mL of acetonitrile was added to precipitate proteins. The mixture was oscillated for 2 min and then centrifuged for 10 min (12,000 rpm, 4 °C). The supernatant from the new centrifuge tube was collected and dried with nitrogen at room temperature. Finally, the supernatant was redissolved in 50 μL of acetonitrile solution containing 0.1% formic acid. After oscillating for 1 min, another centrifugation step was performed, and the resulting supernatant was used for analysis.
Samples were analyzed on the Vanquish UPLC System (Thermo, Waltham, MA, USA). The Agilent C18 column (4.6 × 150 mm, 4 μm, PN:693970-902T) was selected. The mobile phase was composed of 0.1% formic acid aqueous solution (A) and 0.1% formic acid acetonitrile solution (B). The procedure of gradient elution was as follows: 0–10 min, 95–75% A; 10–25 min, 75–45% A; 25–40 min, 45–30% A; 40–50 min, 30–5% A; 55–55.1 min, 5–95% A; 55.1–60 min, 95% A. The column temperature was set to 30 °C with the flow rate of 0.3 mL/min and the injection volume of 3.0 μL. The mass-spectrometry detection with negative-ion mode was carried out using an Orbitrap Exploris 120 Mass Spectrometer (Thermo, Waltham, MA, USA) and Electrospray ionization (ESI). The sheath-gas-flow rate was […] and the auxiliary-gas-flow rate was […]. The capillary temperature was 325 °C, and the resolution was 120,000 in full scan mode with the mass scan range of 80~1500 m/z. The secondary cracking was performed with HCD at a collision voltage of 30 eV, and unnecessary MS/MS information was removed using the dynamic exclusion method.

Setting [1] is: lung tissue, A549 tumor-bearing mice, intragastric PG–OJ extract 10.2 g/kg (6.8 g/kg elsewhere in the source), mean ± SD, n = 6.
Where [2] appears, read: lung tissue, oral PG–OJ extract.
The mark [3] stands for this setting: male, BALB/c nude, mouse, lung tissue, po, 10.2 g/kg, lung tissue, A549 tumor-bearing mice, intragastric PG–OJ extract 10.2 g/kg (6.8 g/kg elsewhere in the source), mean ± SD, n = 6, read-out: Tmax (converted).
[4] abbreviates: male, BALB/c nude, mouse, po, lung tissue, A549 tumor-bearing mice, intragastric PG–OJ extract 10.2 g/kg (6.8 g/kg elsewhere in the source), mean ± SD, n = 6.
[5] abbreviates: male, BALB/c nude, mouse, po, lung tissue, A549 tumor-bearing mice, intragastric PG–OJ extract 10.2 g/kg (6.8 g/kg elsewhere in the source), mean ± SD, n = 6, read-out: T1/2.
Where [6] appears, read: male, BALB/c nude, mouse, lung tissue, po, 10.2 g/kg, lung tissue, oral PG–OJ extract, read-out: time to reach peak concentration.
Setting [7] is: male, BALB/c nude, mouse, in vivo, po, lung tissue, A549 tumor-bearing mice, intragastric PG–OJ extract 10.2 g/kg (6.8 g/kg elsewhere in the source), mean ± SD, n = 6.

A word on the Cmax: it is the peak of the concentration-time curve.

Consider `CC(C)=CCC[C@](C)(O[C@@H]1O[C@H](CO)[C@@H](O)[C@H](O)[C@H]1O)[C@H]1CC[C@]2(C)[C@@H]1[C@H](O)C[C@@H]1[C@@]3(C)CC[C@H](O)C(C)(C)[C@@H]3[C@@H](O[C@@H]3O[C@H](CO)[C@@H](O)[C@H](O)[C@H]3O)C[C@]12C` [Ginsenoside Rg1], for which, under setting [1], the “AUC(0–t)” value turned out to be 2295.03 ± 213.32 ng·min/g and the “AUC(0–∞)” value came to 2345.90 ± 212.68 ng·min/g. For the same molecule, the “time to reach maximum concentration (Cmax) after administration” value (from here on “time to reach maximum concentration”) under setting [2] is given as not above 15 min. Also, under setting [3], the Tmax was 0.25 h. Moreover, under setting [4], the highest concentration (Cmax) was found to be 50.2 ± 6.67 ng/g and the MRT last is 2.26 h. Under setting [5], the half-life was found to be 1.64 ± 0.0457 h.
With `CC(C)=CC/C=C(\C)[C@H]1CC[C@]2(C)[C@@H]1[C@H](O)C[C@@H]1[C@@]3(C)CC[C@H](O[C@@H]4O[C@H](CO)[C@@H](O)[C@H](O)[C@H]4O[C@@H]4O[C@H](CO)[C@@H](O)[C@H](O)[C@H]4O)C(C)(C)[C@@H]3CC[C@]12C` [Ginsenoside Rg5], under setting [1], the “AUC(0–t)” value is 1,342,117.43 ± 45,675.73 ng/g·min and the “AUC(0–∞)” value is listed as 1,372,202.28 ± 48,963.33 ng/g·min. The “AUC(0–∞) compared with other components” value (lung tissue, oral PG–OJ extract, in words) is “significantly higher than those of other components”. The Tmax under setting [3] was 4 h. In addition, the Tmax under setting [6] was 12 h. Further, under setting [4], the Cmax is 7970 ± 442 ng/g and the MRT last is 3.07 h. Under setting [5], the half-life stood at 2.11 ± 0.157 h. Besides, the “exposure level in lung tissue” value (oral PG–OJ extract, in words) is “highest exposure level”.
As to `CC(C)=CCC[C@](C)(O[C@@H]1O[C@H](CO[C@@H]2OC[C@@H](O)[C@H](O)[C@H]2O)[C@@H](O)[C@H](O)[C@H]1O)[C@H]1CC[C@]2(C)[C@@H]1[C@H](O)C[C@@H]1[C@@]3(C)CC[C@H](O[C@@H]4O[C@H](CO)[C@@H](O)[C@H](O)[C@H]4O[C@@H]4O[C@H](CO)[C@@H](O)[C@H](O)[C@H]4O)C(C)(C)[C@@H]3CC[C@]12C` [Ginsenoside Rb3], under setting [1], the “AUC(0–t)” value turned out to be 4049.29 ± 622.84 ng·min/g and the “AUC(0–∞)” value is 16,689.44 ± 2585.97 ng/g·min. In addition, under setting [4], the peak concentration (Cmax) amounted to 5.92 ± 0.45 ng/g and the MRT last was 13.8 h. Moreover, under setting [5], the half-life is 66.6 ± 8.6 h.
`CC(C)=CCC[C@](C)(O[C@@H]1O[C@H](CO)[C@@H](O)[C@H](O)[C@H]1O)[C@H]1CC[C@]2(C)[C@@H]1[C@H](O)C[C@@H]1[C@@]3(C)CC[C@H](O)C(C)(C)[C@@H]3[C@@H](O)C[C@]12C` [Ginsenoside F1] yielded a half-life (male, BALB/c nude, mouse, in vivo, po) of 2.24 ± 0.241 h. For the same molecule, the Tmax (male, BALB/c nude, mouse, in vivo, po, Tmax) was 4 h. Further, the “exposure level in lung tissue” value (mouse, in vivo, po) was “extremely low”.
In the case of `CC(C)=CCC[C@](C)(O[C@@H]1O[C@H](CO[C@@H]2OC[C@H](O)[C@H](O)[C@H]2O)[C@@H](O)[C@H](O)[C@H]1O)[C@H]1CC[C@]2(C)[C@@H]1[C@H](O)C[C@@H]1[C@@]3(C)CC[C@H](O[C@@H]4O[C@H](CO)[C@@H](O)[C@H](O)[C@H]4O[C@@H]4O[C@H](CO)[C@@H](O)[C@H](O)[C@H]4O)C(C)(C)[C@@H]3CC[C@]12C` [Ginsenoside Rb2], under setting [1], the “AUC(0–t)” value turned out to be 3935.63 ± 598.40 ng·min/g and the “AUC(0–∞)” value was 6076.50 ± 664.68 ng·min/g. Moreover, under setting [4], the Cmax was found to be 7.2 ± 0.96 ng/g and the MRT last is 11.9 h. Further, under setting [5], the half-life worked out at 19.9 ± 4.38 h.
`CC(C)=CCC[C@](C)(O[C@@H]1O[C@H](CO)[C@@H](O)[C@H](O)[C@H]1O)[C@H]1CC[C@]2(C)[C@@H]1[C@H](O)C[C@@H]1[C@@]3(C)CC[C@H](O)C(C)(C)[C@@H]3[C@@H](O[C@@H]3O[C@H](CO)[C@@H](O)[C@H](O)[C@H]3O[C@@H]3OC[C@@H](O)[C@H](O)[C@H]3O)C[C@]12C` [Notoginsenoside R1]: where the note is “mouse, in vivo, po”, the T1/2 came out at 1.24 ± 0.0245 h, the Tmax turned out to be 0.125 ± 0.059 h, the “exposure level in lung tissue” value is “extremely low” and the “time to reach maximum concentration” value is recorded as not above 15 min.
Consider `CC(C)=CCC[C@](C)(O[C@@H]1O[C@H](CO)[C@@H](O)[C@H](O)[C@H]1O)[C@H]1CC[C@]2(C)[C@@H]1[C@H](O)C[C@@H]1[C@@]3(C)CC[C@H](O)C(C)(C)[C@@H]3[C@@H](O[C@@H]3O[C@H](CO)[C@@H](O)[C@H](O)[C@H]3O[C@@H]3O[C@@H](C)[C@H](O)[C@@H](O)[C@H]3O)C[C@]12C` [Ginsenoside Re], for which, under setting [1], the “AUC(0–t)” value is 3815.68 ± 233.30 ng·min/g and the “AUC(0–∞)” value came out at 3933.20 ± 224.66 ng·min/g. The “time to reach maximum concentration” value under setting [2] is recorded as not above 15 min. The Tmax under setting [3] was 0.0833 h. In addition, under setting [4], the highest concentration (Cmax) came to 132 ± 32.9 ng/g and the MRT last is 1.57 h. Under setting [5], the half-life worked out at 1.76 ± 0.0727 h.
On to `CC(C)=CCC[C@](C)(O)[C@H]1CC[C@]2(C)[C@@H]1[C@H](O)C[C@@H]1[C@@]3(C)CC[C@H](O)C(C)(C)[C@@H]3[C@@H](O[C@@H]3O[C@H](CO)[C@@H](O)[C@H](O)[C@H]3O)C[C@]12C` [Ginsenoside Rh1], for which, under setting [1], the “AUC(0–t)” value came to 1303.44 ± 70.16 ng·min/g and the “AUC(0–∞)” value was determined as 1724.14 ± 411.48 ng·min/g. Under setting [2], the “time to reach maximum concentration” value is not above 15 min. In addition, where the note is “male, BALB/c nude, mouse, in vivo, po, 10.2 g/kg, lung tissue, A549 tumor-bearing mice, intragastric PG–OJ extract 10.2 g/kg (6.8 g/kg elsewhere in the source), mean ± SD, n = 6, read-out: T1/2”, the half-life amounted to 6.97 ± 4.9 h. In addition, under “male, BALB/c nude, mouse, in vivo, po, 10.2 g/kg, lung tissue, oral PG–OJ extract, read-out: half-life (converted)”, the half-life was 6.9 h. Further, under setting [7], the Cmax stood at 8.98 ± 0.2 ng/g and the MRT last is 3.18 h. Moreover, the Tmax (male, BALB/c nude, mouse, in vivo, po, lung tissue, A549 tumor-bearing mice, intragastric PG–OJ extract 10.2 g/kg (6.8 g/kg elsewhere in the source), mean ± SD, n = 6, read-out: Tmax (converted)) is 0.208 h. Moreover, the “exposure level in lung tissue” value (oral PG–OJ extract, in words) is on record as “extremely low”.
As for `CC(C)=CCC[C@](C)(O[C@@H]1O[C@H](CO[C@@H]2O[C@@H](CO)[C@H](O)[C@H]2O)[C@@H](O)[C@H](O)[C@H]1O)[C@H]1CC[C@]2(C)[C@@H]1[C@H](O)C[C@@H]1[C@@]3(C)CC[C@H](O[C@@H]4O[C@H](CO)[C@@H](O)[C@H](O)[C@H]4O[C@@H]4O[C@H](CO)[C@@H](O)[C@H](O)[C@H]4O)C(C)(C)[C@@H]3CC[C@]12C` [Ginsenoside Rc], under setting [1], the “AUC(0–t)” value is listed as 23,180.66 ± 703.80 ng/g·min and the “AUC(0–∞)” value is on record as 25,129.88 ± 1611.92 ng/g·min. Besides, under setting [3], the Tmax was 12 h. In addition, the Tmax under setting [6] is 12 h. Further, under setting [4], the Cmax is 43 ± 2.11 ng/g and the MRT last is 11.6 h. For the same molecule, the half-life under setting [5] turned out to be 7.41 ± 1.68 h.
